Experimental data from patent publication EP0429372A1, “2-Azolyl nicotinate derivatives as herbicides” (RHONE-POULENC AGROCHIMIE, priority 1989, dated 1991).
Read-outs that look alike come from different tables or passages of the source.

Key:
Format in all cases: in vivo
Digitaria sanguinalis = test: Example B: post-emergence herbicidal application, pot test; details: 1000 g/ha, 576 h
Outline: (§1)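 Post-emergence spray at 500 L/ha on seedlings in light soil (grasses at second-leaf stage, dicots at cotyledon/first true leaf), rates of 4000 g/ha. Held 24 days at room temperature, 70% RH, subirrigated. Plant kill and height reduction versus untreated combined into surviving foliar volume, scored 0–5.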

Echinochloa crusgalli = test: as above; details: 1000 g/ha, 576 h
Outline: as §1

Ipomea purpurea = test: as above; details: 1000 g/ha, 576 h
Outline: as §1

Solanum nigrum [1] = test: as above; details: 1000 g/ha, 576 h
Outline: as §1

Ipomea pupurea = test: Example C: selectivity test in major crops, post-emergence application; details: 576 h
Text: (§2) Dans des pots de 7 x 7 x 8 cm remplis de terre agricole légère, on sème un nombre de graines déterminé en fonction de l'espèce végétale et de la grosseur de la graine.
(§3) On recouvre ensuite les graines d'une couche de terre d'environ 3 mm d'épaisseur et on laisse germer la graine jusqu'à ce qu'elle donne naissance à une plantule au stade convenable. Le stade de traitement pour les graminées est le stade "deuxième feuille en formation". Le stade de traitement pour les dicotylédones, est le stade "cotylédons étalés, première feuille vraie en développement".
(§4) Les pots sont alors traités par pulvérisation de bouillie en quantité correspondant à une dose volumique d'application de 500 l/ha et contenant la matière active à la concentration désirée.
(§5) La bouillie a été préparée de la même manière qu'à l'exemple A.
(§6) Les pots traités sont ensuite placés dans des bacs destinés à recevoir l'eau d'arrosage, en subirrigation, et maintenus pendant 24 jours à température ambiante sous 70 % d'humidité relative.
(§7) Au bout de 24 jours, on mesure un pourcentage (D) de destruction du nombre de pieds dans le pot traité par rapport au nombre de plantes dans les pots non traités (témoin). On mesure, sur les plantes traitées restantes, le pourcentage de réduction de taille (RT) par rapport aux plantes témoin.
(§8) Le pourcentage de volume foliaire non détruit par le produit est donc donné par la formule : [formula]
(§9) Cette valeur A est transformée en notation de 0 à 5 selon l'échelle suivante :
(§10) Ainsi, un produit est jugé comme sélectif vis à vis de la culture lorsque la valeur A notée est de 0 ou 1.
(§11) Les résultats obtenus sont présentés dans l'exemple C pour des doses d'application comprises entre 0,5 et 4 kg de matière active par hectare selon les produits.

Oryza sativa = test: as above; details: crop (Riz), 24 days, score 0-5, 0 or 1 = selective
Text: as §2, §3, §4, §5, §6, §7, §8, §9, §10, §11

Sesbania exaltata = test: as above; details: 576 h
Text: as §2, §3, §4, §5, §6, §7, §8, §9, §10, §11

Solanum nigrum [2] = test: as above; details: 576 h
Text: as §2, §3, §4, §5, §6, §7, §8, §9, §10, §11

Triticum aestivum = test: as above; details: crop (Blé), 24 days, score 0-5, 0 or 1 = selective
Text: as §2, §3, §4, §5, §6, §7, §8, §9, §10, §11

Viola tricolor = test: as above; details: 576 h
Text: as §2, §3, §4, §5, §6, §7, §8, §9, §10, §11

Xanthium pennsylvanicum = test: as above; details: 576 h
Text: as §2, §3, §4, §5, §6, §7, §8, §9, §10, §11

Zea mays = test: as above; details: crop (Maïs), 24 days, score 0-5, 0 or 1 = selective
Text: as §2, §3, §4, §5, §6, §7, §8, §9, §10, §11

Chrysanthemum segetum = details: post-emergence, 576 h
Text: as §2, §3, §4, §5, §6, §7, §8, §9, §10, §11

Convolvulus arvensis = details: post-emergence, 576 h
Text: as §2, §3, §4, §5, §6, §7, §8, §9, §10, §11

Polygonum convolvulus = details: 576 h
Text: as §2, §3, §4, §5, §6, §7, §8, §9, §10, §11

Sinapis alba = test: Example B: post-emergence herbicidal application, pot test; details: 1000 g/ha, 576 h
Wherever ACTIVITE HERBICIDE DE POST LEVEE O R Y is given: ranges in brackets are in %.
Wherever ACTIVITE HERBICIDE DE POST LEVEE T R Z is given: ranges in brackets are in %.
Wherever ACTIVITE HERBICIDE DE POST LEVEE Z E A is given: ranges in brackets are in %.

## CN(C)S(=O)(=O)n1c(-c2ncccc2C(=O)O)nc2ccccc21 [compound 119]
Digitaria sanguinalis
  ACTIVITE DE POST-LEVEE DIG: 0 (90 à 100)
Echinochloa crusgalli
  ACTIVITE DE POST-LEVEE ECH: 0 (90 à 100)
Ipomea purpurea
  ACTIVITE DE POST-LEVEE IPO: 3 (30 à 50)
Solanum nigrum [1]
  ACTIVITE DE POST-LEVEE SOL: 5 (O à 10)
Ipomea pupurea; 500 g/ha
  ACTIVITE HERBICIDE DE POST LEVEE I P O: 3 (30 à 50)
Oryza sativa; dose 0,5 kg/ha
  ACTIVITE HERBICIDE DE POST LEVEE O R Y: 0 (90 à 100)
Sesbania exaltata; 500 g/ha
  ACTIVITE HERBICIDE DE POST LEVEE S E S: 5 (O à 10)
Solanum nigrum [2]; 500 g/ha
  ACTIVITE HERBICIDE DE POST LEVEE S O L: 4 (10 à 30)
Triticum aestivum; dose 0,5 kg/ha
  ACTIVITE HERBICIDE DE POST LEVEE T R Z: 0 (90 à 100)
Viola tricolor; 500 g/ha
  ACTIVITE HERBICIDE DE POST LEVEE V I O: 3 (30 à 50)
Xanthium pennsylvanicum; 500 g/ha
  ACTIVITE HERBICIDE DE POST LEVEE X A N: 3 (30 à 50)
Zea mays; dose 0,5 kg/ha
  ACTIVITE HERBICIDE DE POST LEVEE Z E A: 0 (90 à 100)
Chrysanthemum segetum; 500 g/ha
  ACTIVITE HERBICIDE DE POST LEVEE C H Y: 5 (O à 10)
Convolvulus arvensis; 500 g/ha
  ACTIVITE HERBICIDE DE POST LEVEE C O N: 2 (50 à 70)
Polygonum convolvulus; 500 g/ha
  ACTIVITE HERBICIDE DE POST LEVEE P O L: 5 (O à 10)
Sinapis alba
  ACTIVITE DE POST-LEVEE SIN: 4 (10 à 30)

## CN(C)S(=O)(=O)n1c(-c2ncccc2C(=O)O)nc2ccccc21 [compound 122]
Digitaria sanguinalis
  ACTIVITE DE POST-LEVEE DIG: 1 (70 à 90)
Echinochloa crusgalli
  ACTIVITE DE POST-LEVEE ECH: 2 (50 à 70)
Ipomea purpurea
  ACTIVITE DE POST-LEVEE IPO: 4 (10 à 30)
Solanum nigrum [1]
  ACTIVITE DE POST-LEVEE SOL: 5 (O à 10)
Ipomea pupurea; 1000 g/ha
  ACTIVITE HERBICIDE DE POST LEVEE I P O: 5 (O à 10)
Oryza sativa; dose 1 kg/ha
  ACTIVITE HERBICIDE DE POST LEVEE O R Y: 0 (90 à 100)
Sesbania exaltata; 1000 g/ha
  ACTIVITE HERBICIDE DE POST LEVEE S E S: 5 (O à 10)
Solanum nigrum [2]; 1000 g/ha
  ACTIVITE HERBICIDE DE POST LEVEE S O L: 5 (O à 10)
Triticum aestivum; dose 1 kg/ha
  ACTIVITE HERBICIDE DE POST LEVEE T R Z: 0 (90 à 100)
Viola tricolor; 1000 g/ha
  ACTIVITE HERBICIDE DE POST LEVEE V I O: 3 (30 à 50)
Xanthium pennsylvanicum; 1000 g/ha
  ACTIVITE HERBICIDE DE POST LEVEE X A N: 5 (O à 10)
Zea mays; dose 1 kg/ha
  ACTIVITE HERBICIDE DE POST LEVEE Z E A: 0 (90 à 100)
Chrysanthemum segetum; 1000 g/ha
  ACTIVITE HERBICIDE DE POST LEVEE C H Y: 5 (O à 10)
Convolvulus arvensis; 1000 g/ha
  ACTIVITE HERBICIDE DE POST LEVEE C O N: 5 (O à 10)
Polygonum convolvulus; 1000 g/ha
  ACTIVITE HERBICIDE DE POST LEVEE P O L: 5 (O à 10)
Sinapis alba
  ACTIVITE DE POST-LEVEE SIN: 5 (O à 10)
